In US12662479B2 (Foghorn Therapeutics Inc., priority 2020, dated 2026):

Experiments:
HiBit-BRM fusion protein = target: T1, HiBit-BRM fusion protein (Homo sapiens, UniProt P51531); test: HiBiT-BRM cell-based degradation assay (Nano-Glo HiBiT Lytic Detection, 24 h); conditions: HeLa cells expressing HiBiT-BRM; for DC50: read-out: BRM HiBit Degradation IC50; for BRM HiBit Degradation Maximum measured: top dose 30 μM
T1 construct: expressed in transfected cells
Outline: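 Percent BRM loss was derived from HiBiT luminescence relative to DMSO-treated cells and cells given 2 μM of a known BRM/BRG1 degrader. Treatment lasted 24 h in HiBiT-BRM HeLa cells, with a top final concentration of 30 μM.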

[1] = target: T2, HiBit-BRG1 fusion protein (Homo sapiens, UniProt P51532); test: HiBiT-BRG1 cell-based degradation assay (Nano-Glo HiBiT Lytic Detection, 24 h); conditions: HeLa cells expressing HiBit-BRG1 and LgBit; for DC50: read-out: BRG1 HiBit Degradation IC50; for Dmax: HeLa, top dose 30 μM, read-out: BRG1 HiBit Degradation Maximum measured
T2 construct: expressed in transfected cells
T2 sequence (P51532 whole entry, the tested form may be a part): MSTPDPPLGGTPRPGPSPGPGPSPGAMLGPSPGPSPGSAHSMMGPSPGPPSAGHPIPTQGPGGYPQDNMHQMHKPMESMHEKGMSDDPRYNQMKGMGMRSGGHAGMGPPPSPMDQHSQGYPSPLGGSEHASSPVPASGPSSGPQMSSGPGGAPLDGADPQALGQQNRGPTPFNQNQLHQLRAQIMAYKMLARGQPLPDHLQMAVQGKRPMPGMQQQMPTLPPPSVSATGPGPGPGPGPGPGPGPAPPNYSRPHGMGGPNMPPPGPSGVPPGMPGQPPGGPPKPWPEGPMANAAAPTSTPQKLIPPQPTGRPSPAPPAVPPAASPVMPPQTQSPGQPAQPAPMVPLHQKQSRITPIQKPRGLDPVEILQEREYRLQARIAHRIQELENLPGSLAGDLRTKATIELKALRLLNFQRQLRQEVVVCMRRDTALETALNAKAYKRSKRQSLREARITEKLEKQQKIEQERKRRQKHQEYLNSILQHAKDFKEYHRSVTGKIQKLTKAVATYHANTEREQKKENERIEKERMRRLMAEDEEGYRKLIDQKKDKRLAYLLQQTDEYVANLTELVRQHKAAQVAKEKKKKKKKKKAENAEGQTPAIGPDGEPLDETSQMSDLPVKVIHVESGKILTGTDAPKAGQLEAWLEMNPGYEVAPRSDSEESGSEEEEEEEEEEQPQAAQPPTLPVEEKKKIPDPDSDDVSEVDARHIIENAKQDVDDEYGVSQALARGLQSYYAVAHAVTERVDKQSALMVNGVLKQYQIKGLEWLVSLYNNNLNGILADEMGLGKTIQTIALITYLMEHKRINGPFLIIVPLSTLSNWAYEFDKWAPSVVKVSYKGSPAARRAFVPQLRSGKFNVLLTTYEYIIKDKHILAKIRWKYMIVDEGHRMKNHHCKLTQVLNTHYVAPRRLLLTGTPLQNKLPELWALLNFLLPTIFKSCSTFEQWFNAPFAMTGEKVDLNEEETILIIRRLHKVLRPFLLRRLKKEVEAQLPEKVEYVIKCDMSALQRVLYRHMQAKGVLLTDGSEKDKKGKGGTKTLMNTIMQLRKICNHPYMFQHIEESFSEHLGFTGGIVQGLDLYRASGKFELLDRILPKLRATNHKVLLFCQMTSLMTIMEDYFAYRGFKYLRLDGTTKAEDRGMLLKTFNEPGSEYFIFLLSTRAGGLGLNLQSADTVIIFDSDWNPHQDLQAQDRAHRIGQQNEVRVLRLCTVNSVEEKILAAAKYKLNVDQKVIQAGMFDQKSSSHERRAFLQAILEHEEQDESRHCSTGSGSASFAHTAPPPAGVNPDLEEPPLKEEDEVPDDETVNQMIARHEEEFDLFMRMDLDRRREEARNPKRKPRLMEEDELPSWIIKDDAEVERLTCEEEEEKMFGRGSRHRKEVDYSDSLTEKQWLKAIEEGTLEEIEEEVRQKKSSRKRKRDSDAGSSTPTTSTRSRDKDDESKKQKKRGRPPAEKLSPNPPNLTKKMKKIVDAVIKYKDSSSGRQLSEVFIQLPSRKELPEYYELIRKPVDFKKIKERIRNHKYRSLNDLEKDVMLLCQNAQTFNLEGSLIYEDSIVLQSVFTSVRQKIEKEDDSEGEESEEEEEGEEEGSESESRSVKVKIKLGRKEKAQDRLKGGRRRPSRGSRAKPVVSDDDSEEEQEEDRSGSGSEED
Outline: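 Degradation is scaled from DMSO-treated cells (0%) to cells given 2 μM of a known BRM/BRG1 degrader (100%). HeLa cells stably carrying HiBiT-BRG1 plus LgBiT (5000/well) were lysed with Nano-Glo HiBiT detection reagent, shaken 10 min at RT, and luminescence read.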

T1 sequence (P51531 whole entry, the tested form may be a part): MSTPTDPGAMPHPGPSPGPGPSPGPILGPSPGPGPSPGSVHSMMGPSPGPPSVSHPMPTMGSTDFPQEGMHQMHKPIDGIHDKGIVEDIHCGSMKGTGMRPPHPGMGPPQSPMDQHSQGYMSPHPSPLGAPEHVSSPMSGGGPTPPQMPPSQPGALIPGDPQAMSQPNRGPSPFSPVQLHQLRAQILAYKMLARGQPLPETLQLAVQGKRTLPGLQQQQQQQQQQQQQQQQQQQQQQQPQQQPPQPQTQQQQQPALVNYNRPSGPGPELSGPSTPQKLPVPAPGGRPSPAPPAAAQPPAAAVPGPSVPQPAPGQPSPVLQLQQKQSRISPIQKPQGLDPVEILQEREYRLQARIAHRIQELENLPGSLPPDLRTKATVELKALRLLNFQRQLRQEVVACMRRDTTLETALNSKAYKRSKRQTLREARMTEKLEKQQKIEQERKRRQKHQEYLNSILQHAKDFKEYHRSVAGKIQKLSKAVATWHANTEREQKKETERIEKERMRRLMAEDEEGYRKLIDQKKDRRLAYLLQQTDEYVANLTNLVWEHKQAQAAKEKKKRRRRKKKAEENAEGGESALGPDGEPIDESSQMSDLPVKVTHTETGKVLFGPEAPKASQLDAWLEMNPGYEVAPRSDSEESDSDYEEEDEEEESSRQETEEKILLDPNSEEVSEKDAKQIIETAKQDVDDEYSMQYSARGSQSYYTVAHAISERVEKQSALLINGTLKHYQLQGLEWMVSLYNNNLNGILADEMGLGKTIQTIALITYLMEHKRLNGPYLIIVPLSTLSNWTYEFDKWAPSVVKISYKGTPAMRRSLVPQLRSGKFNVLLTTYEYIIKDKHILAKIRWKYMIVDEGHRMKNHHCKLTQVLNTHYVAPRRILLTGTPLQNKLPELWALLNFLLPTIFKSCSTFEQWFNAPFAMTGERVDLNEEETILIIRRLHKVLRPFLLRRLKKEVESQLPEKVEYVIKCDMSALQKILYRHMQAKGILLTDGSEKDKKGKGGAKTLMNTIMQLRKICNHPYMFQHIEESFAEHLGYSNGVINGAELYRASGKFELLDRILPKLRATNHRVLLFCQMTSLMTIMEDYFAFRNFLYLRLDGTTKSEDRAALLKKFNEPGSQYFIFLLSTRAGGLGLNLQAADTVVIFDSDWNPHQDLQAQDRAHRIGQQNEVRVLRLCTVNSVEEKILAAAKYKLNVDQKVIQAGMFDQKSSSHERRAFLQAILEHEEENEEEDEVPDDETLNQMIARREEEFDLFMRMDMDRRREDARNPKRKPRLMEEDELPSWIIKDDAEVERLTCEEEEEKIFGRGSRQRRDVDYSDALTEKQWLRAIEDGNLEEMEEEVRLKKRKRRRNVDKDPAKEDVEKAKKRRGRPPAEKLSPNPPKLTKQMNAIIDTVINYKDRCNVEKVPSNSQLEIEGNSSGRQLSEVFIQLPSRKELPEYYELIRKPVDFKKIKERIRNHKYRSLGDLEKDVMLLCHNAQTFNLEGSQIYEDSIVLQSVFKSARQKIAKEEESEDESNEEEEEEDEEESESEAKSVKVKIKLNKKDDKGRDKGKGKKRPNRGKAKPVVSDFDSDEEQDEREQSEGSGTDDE

Row | SMILES | DC50 (HiBit-BRM fusion protein) [µM] | BRM HiBit Degradation Maximum measured (HiBit-BRM fusion protein) | DC50 [1] [µM] | Dmax [1] [%]
1 | CS(=O)(=O)n1ccc(C(=O)N[C@@H](CCOCCCC(=O)NCCOCCOCCOCCNC(=O)COc2ccc3c(c2)C(=O)N(C2CCC(=O)NC2=O)C3=O)C(=O)Nc2nc(-c3ccccc3)cs2)c1 (stereo partly drawn) [Compound 273, (2S)-4-(3-[[2-(2-[2-[2-(2-[[2-(2,6-dioxopiperidin-3-yl)-1,3-dioxoisoindol-5-yl]oxy]acetamido)ethoxy]ethoxy]ethoxy)ethyl]carbamoyl]propoxy)-2-[(1-methanesulfonylpyrrol-3-yl)formamido]-N-(4-phenyl-1,3-thiazol-2-yl)butanamide] | > 10 | C (‘C’ = Maximum degradation <50%) | > 10 | < 50
2 | CS(=O)(=O)n1ccc(C(=O)N[C@@H](COCc2ccc(CNC(=O)CCCCCCCCCCNc3cccc4c3C(=O)N(C3CCC(=O)NC3=O)C4=O)cc2)C(=O)Nc2nc(-c3ccccc3)cs2)c1 (stereo partly drawn) [Compound 214, 11-[[2-(2,6-dioxopiperidin-3-yl)-1,3-dioxoisoindol-4-yl]amino]-N-[(4-[[(2S)-2-[(1-methanesulfonylpyrrol-3-yl)formamido]-2-[(4-phenyl-1,3-thiazol-2-yl)carbamoyl]ethoxy]methyl]phenyl)methyl]undecanamide] | 0.1 to 1 | B (‘B’ = Maximum degradation ≥50% and ≤75%) | 0.1 to 1 | 
3 | CS(=O)(=O)n1ccc(C(=O)N[C@@H](COCCCC(=O)NCCCCCCNc2ccc3c(c2)C(=O)N(C2CCC(=O)NC2=O)C3=O)C(=O)Nc2nc(-c3ccccc3)cs2)c1 (stereo partly drawn) [Compound 230, N-(6-[[2-(2,6-dioxopiperidin-3-yl)-1,3-dioxoisoindol-5-yl]amino]hexyl)-4-[(2S)-2-[(1-methanesulfonylpyrrol-3-yl)formamido]-2-[(4-phenyl-1,3-thiazol-2-yl)carbamoyl]ethoxy]butanamide] | > 10 | C (‘C’ = Maximum degradation <50%) | > 10 | < 50
4 | Cc1ncsc1-c1ccc(CNC(=O)[C@@H]2C[C@@H](O)CN2C(=O)[C@@H](NC(=O)CCC(=O)NCCOc2cc(-c3cccc(-c4csc(NC(=O)CNC(=O)c5ccn(S(C)(=O)=O)c5)n4)c3)ccn2)C(C)(C)C)cc1 [Compound 76, N′-[(1S)-1-[(2S,4R)-4-hydroxy-2-[[4-(4-methylthiazol-5-yl)phenyl]methylcarbamoyl]pyrrolidine-1-carbonyl]-2,2-dimethyl-propyl]-N-[2-[[4-[3-[2-[[2-[(1-methylsulfonylpyrrole-3-carbonyl)amino]acetyl]amino]thiazol-4-yl]phenyl]-2-pyridyl]oxy]ethyl]butanediamide] | > 10 | C (‘C’ = Maximum degradation <50%) | > 10 | < 50
5 | CS(=O)(=O)n1ccc(C(=O)N[C@@H](COCc2ccc(CNC(=O)CCOCCOCCNc3cccc4c3C(=O)N(C3CCC(=O)NC3=O)C4=O)cc2)C(=O)Nc2nc(-c3ccccc3)cs2)c1 (stereo partly shown) [Compound 181] | 0.1 to 1 | B (‘B’ = Maximum degradation ≥50% and ≤75%) | 0.1 to 1 | 50 to 75
6 | CS(=O)(=O)n1ccc(C(=O)N[C@@H](CCOCCCC(=O)NCCC2CCN(c3ccc4c(c3)C(=O)N(C3CCC(=O)NC3=O)C4=O)CC2)C(=O)Nc2nc(-c3ccccc3)cs2)c1 (stereo partly drawn) [Compound 277, (2S)-4-[3-[(2-[1-[2-(2,6-dioxopiperidin-3-yl)-1,3-dioxoisoindol-5-yl]piperidin-4-yl]ethyl)carbamoyl]propoxy]-2-[(1-methanesulfonylpyrrol-3-yl)formamido]-N-(4-phenyl-1,3-thiazol-2-yl)butanamide] | > 10 | C (‘C’ = Maximum degradation <50%) | > 10 | < 50
7 | CS(=O)(=O)n1ccc(C(=O)NCC(=O)Nc2nc(-c3cccc(-c4ccnc(C5(C(=O)NCCOCCOCCNc6ccc7c(c6)C(=O)N(C6CCC(=O)NC6=O)C7=O)CC5)c4)c3)cs2)c1 (stereo not shown) [Compound 101, N-[2-[[4-[3-[2-[1-[2-[2-[2-[[2-(2,6-dioxo-3-piperidyl)-1,3-dioxo-isoindolin-5-yl]amino]ethoxy]ethoxy]ethylcarbamoyl]-cyclopropyl]-4-pyridyl]phenyl]thiazol-2-yl]amino]-2-oxo-ethyl]-1-methylsulfonylpyrrole-3-carboxamide] | > 10 | C (‘C’ = Maximum degradation <50%) | > 10 | < 50
8 | CS(=O)(=O)n1ccc(C(=O)NCC(=O)Nc2nc(-c3cccc(-c4ccnc(N5CCN(C(=O)CCCOc6cccc7c6C(=O)N(C6CCC(=O)NC6=O)C7=O)CC5)c4)c3)cs2)c1 (stereo not shown) [Compound 33, N-[2-[[4-[3-[2-[4-[4-[2-(2,6-dioxo-3-piperidyl)-1,3-dioxo-isoindolin-4-yl]oxybutanoyl]piperazin-1-yl]-4-pyridyl]phenyl]thiazol-2-yl]amino]-2-oxo-ethyl]-1-methylsulfonyl-pyrrole-3-carboxamide] | > 10 | C (‘C’ = Maximum degradation <50%) | > 10 | < 50
9 | CN(CC(=O)N1CC(COc2cccc3c2C(=O)N(C2CCC(=O)NC2=O)C3=O)C1)c1cc(-c2cccc(-c3csc(NC(=O)CNC(=O)c4ccn(S(C)(=O)=O)c4)n3)c2)ccn1 (stereo not shown) [Compound 27] | > 10 | C (‘C’ = Maximum degradation <50%) | > 10 | < 50
10 | CS(=O)(=O)n1ccc(C(=O)N[C@@H](COCc2ccc(C(=O)N3CC(Oc4ccc5c(c4)C(=O)N(C4CCC(=O)NC4=O)C5=O)C3)cc2)C(=O)Nc2nc(-c3ccccc3)cs2)c1 (stereo partly drawn) [Compound 194, N-((2S)-3-((4-(3-((2-(2,6-dioxopiperidin-3-yl)-1,3-dioxoisoindolin-5-yl)oxy)azetidine-1-carbonyl)benzyl)oxy)-1-oxo-1-((4-phenylthiazol-2-yl)amino)propan-2-yl)-1-(methylsulfonyl)-1H-pyrrole-3-carboxamide] | > 10 | C (‘C’ = Maximum degradation <50%) | > 10 | < 50
11 | Cc1ncsc1-c1ccc(CNC(=O)[C@@H]2C[C@@H](O)CN2C(=O)[C@@H](NC(=O)CN2CC3(CN(CC(=O)NCc4cccc(-c5cccc(-c6csc(NC(=O)CNC(=O)c7ccn(S(C)(=O)=O)c7)n6)c5)c4)C3)C2)C(C)(C)C)cc1.O=C(O)C(F)(F)F [Compound 166, (2S,4R)-4-hydroxy-1-[(2S)-2-(2-[6-[([[3′-(2-[2-[(1-methanesulfonylpyrrol-3-yl)formamido]acetamido]-1,3-thiazol-4-yl)-[1,1′-biphenyl]-3-yl]methyl]carbamoyl)methyl]-2,6-diazaspiro[3.3]heptan-2-yl]acetamido)-3,3-dimethylbutanoyl]-N-[[4-(4-methyl-1,3-thiazol-5-yl)phenyl]methyl]pyrrolidine-2-carboxamide trifluoroacetate] | 0.1 to 1 | B (‘B’ = Maximum degradation ≥50% and ≤75%) | > 10 | < 50
